# Assay results published in PMC7118841 (Biomedicine & Pharmacotherapy, 2006).
# Read-outs that look alike come from different tables or passages of the source.
# What was measured:
# [1] = system: TGEV; type: cell-based, transmissible gastroenteritis virus of swine; conditions: read-out: EC50, TGEV
# [2] = system: FIPV; type: cell-based, feline infectious peritonitis virus; conditions: read-out: EC50, FIPV
# [3] = system: SARS-V; type: cell-based, SARS coronavirus; conditions: read-out: EC50, SARS-V
# [4] = system: FluV A; conditions: read-out: EC50 against FluV A; cited from earlier work
# [5] = system: FluV A (N3H2/Ishikawa and H1N1/PR8); conditions: rhodamine-labeled virus, MDCK cells; 10 and 25 μM; cited from earlier work
# [6] = system: Ishikawa/AH3N2/(plaque purified) strain; conditions: read-out: EC50, MTT; Parent strain; cited from earlier work
# [7] = system: Ishikawa/AH3N2/(plaque purified) strain; conditions: read-out: EC50, Plaque reduction; Parent strain; cited from earlier work
# [8] = system: FluV A R-1 (HA Lys189Asn, Ile202Thr); conditions: read-out: EC50, MTT; strain R-1; cited from earlier work
# [9] = system: FluV A R-1 (HA Lys189Asn, Ile202Thr); conditions: read-out: EC50, Plaque reduction; strain R-1; cited from earlier work
# [10] = system: FluV A R-2 (HA Ile202Thr); conditions: read-out: EC50, MTT; strain R-2; cited from earlier work
# [11] = system: FluV A R-2 (HA Ile202Thr); conditions: read-out: EC50, Plaque reduction; strain R-2; cited from earlier work
# [12] = system: FluV A R-4 (HA Ile202Thr); conditions: read-out: EC50, MTT; strain R-4; cited from earlier work
# [13] = system: FluV A R-4 (HA Ile202Thr); conditions: read-out: EC50, Plaque reduction; strain R-4; cited from earlier work
# [14] = system: FluV A R-b (HA Lys189Asn); conditions: read-out: EC50, MTT; strain R-b; cited from earlier work
# [15] = system: FluV A R-b (HA Lys189Asn); conditions: read-out: EC50, Plaque reduction; strain R-b; cited from earlier work
# [16] = system: FluV A R-c (HA Lys189Asn, Ile202Val); conditions: read-out: EC50, MTT; strain R-c; cited from earlier work
# [17] = system: FluV A R-c (HA Lys189Asn, Ile202Val); conditions: read-out: EC50, Plaque reduction; strain R-c; cited from earlier work
# [18] = system: MDCK cells; conditions: cited from earlier work
# [19] = system: FluV A (H1N1/PR8); conditions: cited from earlier work
# [20] = system: DFV; conditions: cited from earlier work
# [21] = system: FluV A; conditions: read-out: EC50, FluV A; MTT method; cited from earlier work
# [22] = system: RSV; conditions: read-out: EC50, RSV; MTT method; cited from earlier work
# [23] = system: PfluV 2; conditions: read-out: EC50, PfluV 2; MTT method; cited from earlier work
# [24] = system: CDV; conditions: read-out: EC50, CDV; plaque reduction method; cited from earlier work
# [25] = system: HIV-1; conditions: read-out: EC50, HIV-1; MTT method; cited from earlier work
substance,measurement,setting,value
(iPrNH3)6H[PTi2W10O38(O2)2]H2O [PM-523],EC50,[1],2.5 ± 0.6 µM
same,EC50,[2],> 32 µM
same,EC50,[3],> 50 µM
same,EC50,[4],2.4 µM
same,dequenching of fluorescence (fusion of FluV A envelope with cell membrane),[5],remarkably reduced
same,EC50,[6],8.7 ± 1.2 µM
same,EC50,[7],6.6 ± 0.8 µM
same,EC50,[8],71.4 ± 6.8 µM
same,EC50,[9],74.5 ± 10.2 µM
same,EC50,[10],67.8 ± 6.5 µM
same,EC50,[11],73.6 ± 10.8 µM
same,EC50,[12],79 ± 10.2 µM
same,EC50,[13],88.1 ± 9.9 µM
same,EC50,[14],63 ± 7 µM
same,EC50,[15],66.7 ± 6.2 µM
same,EC50,[16],80.3 ± 6.8 µM
same,EC50,[17],78.9 ± 9.4 µM
same,Percent viability of cells,"[18]; single compound at 100 μM, untreated cells = 100%",81.1 ± 2.9%
same,Percent viability of cells,[18]; single compound at 200 μM,89.3 ± 5.8%
same,Percent viability of cells,[18]; single compound at 400 μM,85.2 ± 3.5%
same,appearance of lungs of infected mice,"[19]; 2.4 mM PM-523 alone, data not shown",swollen and reddened due to congestion
same,mice survived on the 9th day,"[19]; 4.8 mM PM-523 aerosol every 12 hours for 4 days, 10 LD50 FluV A",half
same,survival at 14 days after the infection,[19]; 4.8 mM PM-523 alone,20%
same,antiviral activity against DFV,[20],did not have antiviral activities
same,EC50,"[20]; read-out: EC50, DFV, MTT method",> 61.5 µM
same,EC50,[21],5.6 ± 2 µM
same,EC50,[22],1.3 ± 0.5 µM
same,EC50,[23],2.5 ± 1.3 µM
same,EC50,[24],7.3 ± 1.1 µM
same,EC50,[25],0.3 ± 0.1 µM
